Residue numbers refer to the chain shown, from its start.
What was measured:
Assay in all cases: coupled spectrophotometric assay
Type in all cases: biochemical
[1] = biological target: T1, Rhizobium etli pyruvate carboxylase (RePC) (Rhizobium etli, UniProt Q2K340)
T1 sequence (Q2K340 1-1154): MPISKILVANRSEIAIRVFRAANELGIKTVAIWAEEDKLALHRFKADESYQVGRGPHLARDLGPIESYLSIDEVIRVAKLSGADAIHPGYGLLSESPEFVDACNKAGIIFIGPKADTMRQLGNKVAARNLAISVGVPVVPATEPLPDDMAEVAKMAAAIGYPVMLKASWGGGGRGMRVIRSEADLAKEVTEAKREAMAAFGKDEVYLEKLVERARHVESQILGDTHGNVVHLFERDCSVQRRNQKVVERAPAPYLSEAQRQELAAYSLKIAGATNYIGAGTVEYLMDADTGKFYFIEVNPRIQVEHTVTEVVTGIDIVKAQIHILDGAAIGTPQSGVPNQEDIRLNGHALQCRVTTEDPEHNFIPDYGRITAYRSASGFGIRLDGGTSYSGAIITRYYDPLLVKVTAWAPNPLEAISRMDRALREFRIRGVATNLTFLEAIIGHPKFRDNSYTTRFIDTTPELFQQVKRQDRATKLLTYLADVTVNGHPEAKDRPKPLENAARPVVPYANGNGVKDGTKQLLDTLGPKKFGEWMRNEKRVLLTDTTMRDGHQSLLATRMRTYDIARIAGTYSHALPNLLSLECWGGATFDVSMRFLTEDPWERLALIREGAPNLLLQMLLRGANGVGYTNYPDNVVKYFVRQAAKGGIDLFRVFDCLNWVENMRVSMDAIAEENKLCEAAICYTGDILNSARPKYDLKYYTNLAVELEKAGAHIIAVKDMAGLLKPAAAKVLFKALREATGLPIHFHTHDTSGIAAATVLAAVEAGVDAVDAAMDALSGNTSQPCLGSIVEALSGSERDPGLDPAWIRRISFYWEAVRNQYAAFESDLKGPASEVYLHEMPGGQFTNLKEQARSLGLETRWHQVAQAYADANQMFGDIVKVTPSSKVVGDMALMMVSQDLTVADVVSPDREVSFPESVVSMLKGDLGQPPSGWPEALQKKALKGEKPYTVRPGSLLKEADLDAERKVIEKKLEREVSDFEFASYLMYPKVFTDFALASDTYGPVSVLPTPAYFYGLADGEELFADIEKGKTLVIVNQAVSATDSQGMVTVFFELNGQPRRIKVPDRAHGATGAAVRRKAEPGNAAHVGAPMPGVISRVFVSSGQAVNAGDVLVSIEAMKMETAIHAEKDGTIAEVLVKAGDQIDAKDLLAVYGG

[2] = biological target: T2, Rhizobium etli pyruvate carboxylase (RePC) (Rhizobium etli, UniProt Q2K340, R427S)
T2 sequence (Q2K340 1-1154 R427S): T1 sequence (Q2K340 1-1154) with R427S

[3] = biological target: Rhizobium etli pyruvate carboxylase (RePC) (Rhizobium etli, UniProt Q2K340, R472S)

N[C@@H](CC(=O)O)C(=O)O [L-aspartate]
Ki [1]: 5 ± 0.6 mM
Ki [2]: 7 ± 1 mM
Ki [3]: 7 ± 1 mM

Source: PMC3567212 (Biochemistry, 2012)
